The subject of assay [1] is inbred wildtype control plants. As to the kind of experiment: Allelism testcross experiments, susceptible controls. It is filed as in vivo, maize (Zea mays L.). On the procedure: Foliar applications of the herbicides were made to greenhouse- or field-grown seedlings at the three- to five-leaf stage. Herbicides were applied in a spray volume of 187 l/ha that includes 2.3 l/ha crop oil concentrate to enhance uptake. Sethoxydim and haloxyfop were applied using commercial formulations (Poast from BASF Corp and Verdict from Dow Elanco, respectively). Visual observations were recorded 14-21 days after herbicide treatments.
All F1 combinations (no reciprocals) between S1, S2, S3, H1 and H2 homozygotes were made, and these F1s were test crossed to susceptible inbred lines. The testcross progeny were grown in the greenhouse and treated with the herbicides. In Experiment 1, progeny from testcrosses with each of the ten F1 combinations were treated with 0.05 kg/ha sethoxydim for combinations involving only S lines or with 0.009 kg/ha haloxyfop for combinations involving either of the H lines. In Experiment 2, a selected subset of the F1 combinations was tested that used testcross families that were separately derived from those used in Experiment 1. Testcross progeny of S lines were treated with 0.03 kg/ha sethoxydim, and H1 and H2 progeny were treated with 0.009 kg/ha haloxyfop. In each experiment, known susceptible and heterozygous plants were included as controls.

The test system of assay [2] is ACCase of cell line 2167-9/2160-154 H-2. As to the kind of experiment: Herbicide inhibition of ACCase, line H-2. The assay is classed as biochemical, maize. Conditions: cell line H-2. How it is done:
Maize chloroplasts, isolated as described above, were suspended in buffer C (0.1 M Tricine-KOH, pH 8.0; 0.3 M glycerol, and 1 mM DTT) and homogenized in a glass tissue homogenizer. The disrupted chloroplast fraction was centrifuged at 16,000 g for 15 minutes. The supernatant was desalted on a Sephadex G-25 column (1.5×5 cm equilibrated with 0.1 M Tricine-KOH, pH 8.0; and 0.3 M glycerol) and assayed directly. ACCase activity (B. J. Nikolau et al., Arch. Biochem. Biophys., 211, 605-612 (1981)) was assayed at 30° C. in a 0.2 ml volume which contained 1 mM ATP, 3 mM acetyl coenzyme A, 2.5 mM MgCl2, 50 mM KCl, 0.5 mM DTT, and 15 mM [^14C]NaHCO3 (0.17 mCi/mmol). Reactions were initiated by addition of acetyl coenzyme A and stopped by addition of 25 μl of 12 N HCl. Product formation was determined by the radioactivity found in an acid stable fraction by liquid scintillation spectrometry. Enzyme activity was linear for 15 minutes.
Acetyl Coenzyme A Carboxylase (ACCase) was extracted from cell lines S-1, H-1 and H-2 and assayed as described in detail for maize cell line S-2, above.

Another assay concerns fatty acid synthetase. As to the kind of experiment: [14C]malonyl-CoA incorporation into fatty acids, cell-free extracts from corn suspension cultures. It is filed as biochemical, Black Mexican Sweet (BMS) corn. How it is done: Incorporation of [^14C]malonyl-Coenzyme A into fatty acids (P. B. Hoj et al., supra; and J. B. Ohlrogge et al., Proc. Natl. Acad. Sci. USA, 76, 1194-1198 (1979)) was assayed using cell-free preparations from BMS tissue culture. Cells harvested during logarithmic growth phase were frozen in liquid nitrogen, ground with a mortar and pestle, and thawed in a medium containing: 0.1 M HEPES-KOH, pH 7.5; 0.3 M glycerol, and 5 mM DTT (buffer:tissue, 2:1, v/w). The homogenate was centrifuged at 12,000 g for 20 minutes. The supernatant was filtered through miracloth and centrifuged (125,000 g) for 60 minutes and then filtered through miracloth and assayed. Assays were conducted at 25° C. in a 0.4 ml volume containing: 1.0 mM ATP, 0.32 mM NADPH, 0.38 mM NADH, 25 μM CoA, 10 μM acetyl-CoA, 25 μg acyl-carrier protein, and 12 μM malonyl-CoA (11.54 μCi/μmol). Reactions were initiated by addition of [^14C]malonyl CoA and stopped by addition of 0.4 ml 40% KOH. Label incorporation into fatty acids was determined as above. Chlorophyll (D. I. Arnon, Plant Physiol., 24, 1-15 (1949)) and protein (P. K. Smith et al., Anal. Biochem., 150, 76-85 (1985)) were determined as described therein.

Assay [3] deals with control cell line 2167-9/2160-154. As to the kind of experiment: Callus growth on herbicide medium, control line. The settings on record: for IC50: read-out: Herbicide concentration inhibiting growth 50%. It is filed as cell-based, maize. How it is done: A selection protocol to identify and isolate herbicide-tolerant maize cells was developed to minimize the adverse effects of high herbicide concentrations on somatic embryo development and plant regeneration capacity. The procedure involved exposing tissue to gradually increasing concentrations of herbicide beginning with a sethoxydim concentration representing 1/20th of lethal dose and doubling the herbicide concentration at approximately two-week intervals until the lethal dose (10 μM sethoxydim) was reached. In this way, the herbicide was allowed to take effect slowly with continuous selection pressure, thus permitting herbicide-tolerant cells to accumulate over time while not affecting the potential for plant regeneration.
Approximately 100 grams of vigorously growing, regenerable, friable, embryogenic maize callus tissue established from an F1 immature embryo resulting from the cross A188×B73 were transferred to agar-solidified maintenance medium (Armstrong and Green, Planta, 164, 207 (1985)) in petri plates containing 0.5 μM sethoxydim (BASF) (Parsippany, N.J.). This callus line was designated 2167-9/2160-154. Forty plates were prepared and five clumps of callus tissue weighing about 0.5 grams each were placed on each plate. The 0.5 μM sethoxydim concentration was chosen from growth inhibition studies to provide less than 10-20% growth inhibition during the first two weeks of herbicide exposure. After 14 days, 0.25-0.5 gram pieces of tissue showing vigorous growth rate and retention of embryogenic morphology (i.e., presence of somatic embryos) were subcultured on fresh medium containing 1.0 μM sethoxydim. Eighty plates containing five pieces of tissue per plate were prepared. For each subsequent transfer, all callus tissue showing growth and somatic embryo forming ability was placed on fresh media containing a two-fold increased sethoxydim concentration. Therefore, callus was transferred at two-week intervals to petri plates containing 0.5, 1.0, 2.0, 5.0 and 10.0 μM sethoxydim. During the course of the selection process, the total number of lines decreased as the herbicide-mediated growth inhibition became more intense. […] These lines were designated 2167-9/2160-154 S-1 and 2167-9/2160-154 S-2.
Tolerant cell line 2167-9/2160-154 S-2 (“S-2”) was characterized to evaluate: (1) the magnitude of sethoxydim tolerance; (2) cross-tolerance of haloxyfop; and (3) the biochemical basis for the tolerance. Callus tissue from S-2 that had been maintained on 10 μM sethoxydim was transferred to media containing up to 100 μM sethoxydim. One-half gram of S-2 tissue was plated on a 7 cm filter paper as a lawn overlaying 50 ml agar-solidified culture medium containing 0, 0.5, 1.0, 2.0, 5.0, 10.0, 50.0 and 100 μM sethoxydim, and cultured for two weeks. […]

Like-named read-outs stand apart in the source and are kept apart here.

Data on two molecules can be found in patent publication US6414222B1, “Gene combinations for herbicide tolerance in corn” (Regents of the University of Minnesota, priority 1993, dated 2002).

In the case of `CCCC(=NOCC)C1=C(O)CC(CC(C)SCC)CC1=O` (stereo not drawn) [Sethoxydim, 2-[1-(ethoxyimino)-butyl]-5-[2-(ethylthio)propyl]-3-hydroxy-2-cyclohexen-1-one], the “Response of inbred wildtype control plants” value in assay [1] (0.05 kg/ha (Experiment 1) or 0.03 kg/ha (Experiment 2) sethoxydim) is reported as “all inbred wildtype plants died”. Besides, the “Fold increase in herbicide concentration that inhibits ACCase activity by 50% vs unselected parent cell line” value in assay [2] was 0 fold; in assay [2] (listed as sethoxydim), “no difference”. In addition, in the assay on fatty acid synthetase (sethoxydim 10 μM), the “Effect on [14C]malonyl-CoA incorporation into fatty acids (fatty acid synthetase activity)” value was “did not inhibit”. For the same molecule, in assay [3] (Zea mays, 336 h, read-out: Growth inhibition), the inhibition at 0.5 µM lay in the range of 10 to 20%. The IC50 in assay [3] (Zea mays, 336 h) turned out to be 1000 nM. Besides, the “Lethal dose for callus tissue” value in assay [3] (tissue culture selection protocol) turned out to be 10 µM.

In the case of `CC(Oc1ccc(Oc2ncc(C(F)(F)F)cc2Cl)cc1)C(=O)O` (stereo not drawn) [Haloxyfop, 2-[4-[[3-chloro-5-(trifluoromethyl)-2-pyridinyl]oxy]phenoxy]-propanoic acid], the “Response of wildtype control plants” value in assay [1] (0.009 kg/ha haloxyfop) was “killed most, but not all”. The “Fold increase in herbicide concentration that inhibits ACCase activity by 50% vs unselected parent cell line” value in assay [2] is reported as 0 fold; in assay [2] (listed as haloxyfop) it was “no difference”. For the same molecule, in the assay with fatty acid synthetase (haloxyfop 1 μM), the “Effect on [14C]malonyl-CoA incorporation into fatty acids (fatty acid synthetase activity)” value was “did not inhibit”. In addition, the IC50 in assay [3] (Zea mays, 336 h, control callus, growth after two weeks) came out at 20 nM.
